Measured values taken from patent US8802711B2, “TRPV1 antagonists” (AbbVie Inc., priority 2011, dated 2014).
Like-named read-outs stand apart in the source and are kept apart here.

Legend:
Sprague-Dawley rats = assay: Rat tail immersion assay (noxious thermosensation); type: in vivo; conditions: for % Increase in tail withdrawal latency / change in vivo at 100 µmol/kg: rat, 100 μmol/kg oral, one hour post dosing, 55° C. water bath, relative to vehicle; for change in vivo at 100 µmol/kg: 1 h
Protocol: Adult male Sprague-Dawley rats (250-300 g body weight, Charles River Laboratories, Portage, Mich.) were used. Animal handling and experimental protocols were approved by the Institutional Animal Care and Use Committee (IACUC) at Abbott Laboratories. For all surgical procedures, animals were maintained under isoflurane anesthesia (4-5% to induce, 1-3% to maintain), and the incision sites were sterilized using a 10% povidone-iodine solution prior to and after surgeries.
Compounds were tested for their effects on noxious thermosensation using the tail immersion assay. Testing was performed one hour following oral administration of 100 μmol/kg of the compound in 10% ethanol/20% Tween-80/70% PEG-400 (2 mL/kg). Morphine (6 mg/kg) was administered interperitoneally (i.p.) using saline (2 mL/kg) as the vehicle. For testing, a circulating water bath was heated to 55° C. Thirty to sixty minutes post dosing, the rats were handled for a few seconds to calm them down and then cupped with their back against the tester's hand at a slight angle with head facing away from the tester. With rat in one hand and a 0.01 second stopwatch in the other hand, the tail was quickly immersed 6-8 cm in the water bath or to a distance leaving 2-3 cm of tail out of water. The timer was started simultaneously. When the rat flinched or attempted withdrawal, timer was immediately stopped and the rat's tail was quickly removed from water bath. This response latency (in seconds) was recorded. Process was repeated 3 times with 3-4 minutes between readings and the average response latency was calculated.
For a given example, a percent increase in the average response latency (in seconds) for tail withdrawal relative to a vehicle control was determined. % increase=[(tc−tv)/tv]×100%
tc=response latency (in seconds) with oral dosing of compounds
tv=response latency (in seconds) with oral dosing of vehicle
The % increases in tail withdrawal latency relative to vehicle control are divided into the following categories: […]

[1] = target: T1, human TRPV1 receptor (hTRPV1) (Homo sapiens (Human), UniProt Q8NER1); assay: Capsaicin activation assay (FLIPR intracellular Ca2+); type: cell-based; conditions: inhibition of capsaicin-induced intracellular Ca2+ increase, read-out: hTRPV1 cap IC50
T1 sequence (Q8NER1 whole entry): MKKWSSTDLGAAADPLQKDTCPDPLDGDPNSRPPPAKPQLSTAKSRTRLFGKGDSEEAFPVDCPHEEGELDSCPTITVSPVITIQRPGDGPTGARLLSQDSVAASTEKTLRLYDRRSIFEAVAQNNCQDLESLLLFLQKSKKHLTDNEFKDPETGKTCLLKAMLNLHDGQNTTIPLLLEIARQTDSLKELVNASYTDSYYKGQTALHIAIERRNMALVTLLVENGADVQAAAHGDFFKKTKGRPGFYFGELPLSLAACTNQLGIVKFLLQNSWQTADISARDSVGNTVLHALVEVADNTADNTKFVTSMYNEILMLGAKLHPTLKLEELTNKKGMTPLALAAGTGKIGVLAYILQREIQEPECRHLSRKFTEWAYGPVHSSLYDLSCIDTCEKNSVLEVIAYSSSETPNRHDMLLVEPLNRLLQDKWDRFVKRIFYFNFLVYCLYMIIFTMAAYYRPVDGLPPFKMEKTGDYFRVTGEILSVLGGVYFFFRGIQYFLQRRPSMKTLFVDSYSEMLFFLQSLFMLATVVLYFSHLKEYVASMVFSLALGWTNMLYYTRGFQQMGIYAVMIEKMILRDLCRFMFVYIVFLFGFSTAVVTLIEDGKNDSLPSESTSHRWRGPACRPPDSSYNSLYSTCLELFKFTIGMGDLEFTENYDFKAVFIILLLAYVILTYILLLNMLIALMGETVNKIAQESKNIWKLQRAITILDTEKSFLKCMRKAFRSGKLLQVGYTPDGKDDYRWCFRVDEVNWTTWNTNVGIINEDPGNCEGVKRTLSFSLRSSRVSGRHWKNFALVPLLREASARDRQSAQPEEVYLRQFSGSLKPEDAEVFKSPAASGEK
In short: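 HEK293 cells stably expressing human TRPV1, loaded with Calcium-4 dye 90–120 min at room temperature, preincubated 3 min with compound (12-point one-third-log range) before capsaicin (200 nM as 4× solution). Peak FLIPR fluorescence minus baseline expressed as percent of 50 nM capsaicin control response.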

[2] = target: T1, human TRPV1 receptor (hTRPV1); assay: Acid activation assay (pH 5.0, FLIPR intracellular Ca2+); type: cell-based; conditions: 37.5 μM antagonist, percentage of the maximal pH 5.0-induced response remaining; for remaining activity at 37.5 µM: read-out: hTRPV1 H+ (max % remain)
In short: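 1321N1 astrocytoma cells stably expressing homomeric hTRPV1, loaded with Calcium-4 dye 90–120 min at 25 °C. Compounds, 12-point half-log range, added 3 min before pH 5.0 DPBS/MES challenge; intracellular Ca2+ read by FLIPR fluorescence.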

[3] = Table 1, HEK293 cells expressing human TRPV1
[4] = read-out: % Increase in tail withdrawal latency

Structure (SMILES) | IC50 [1, 3] [nM] | remaining activity at 37.5 µM ([2]; Table 1) [%] | remaining activity at 37.5 µM ([2]; Table 2) [%] | change in vivo at 100 µmol/kg (Sprague-Dawley rats; [4]) [%] | further results
O=C(Nc1cccc2[nH]ncc12)N[C@@H]1C=C[C@H](c2ccccc2)C1 [Example 48, 1-(1H-indazol-4-yl)-3-[(1S,4R)-4-phenylcyclopent-2-en-1-yl]urea] | 42 | 49 | 49 |  | % Increase in tail withdrawal latency (Sprague-Dawley rats): −; IC50 ([1]; Table 2): 42 nM
CN1C(=O)CCc2c(NC(=O)N[C@H]3CC[C@H](c4ccccc4)C3)cccc21 [Example 96, 1-(1-methyl-2-oxo-1,2,3,4-tetrahydroquinolin-5-yl)-3-[(1S,3S)-3-phenylcyclopentyl]urea] | 63 | 66 | 66 | 10 to 25 | IC50 ([1]; Table 2): 63 nM
CN1CC[C@]23c4c5ccc(O)c4O[C@H]2[C@@H](O)C=C[C@H]3[C@H]1C5 [Morphine, reference compound] |  |  |  |  | change in vivo at 6 mg/kg (Sprague-Dawley rats; Rattus norvegicus, ip, read-out: % Increase in tail withdrawal latency): > 25%
O=C(Nc1cccc2c1C[C@@H](O)C2)N[C@@H]1CC[C@H](c2ccccc2)C1 [Example 2, 1-[(2S)-2-hydroxy-2,3-dihydro-1H-inden-4-yl]-3-[(1R,3S)-3-phenylcyclopentyl]urea] | 29 | 40 | 40 |  | % Increase in tail withdrawal latency (Sprague-Dawley rats): −; IC50 ([1]; Table 2): 29 nM
CC(C)(C)c1ccc2c(c1)CC[C@H]2NC(=O)Nc1cccc2[nH]ncc12 [J, reference compound] |  |  | 1 | > 25 | 
Cc1cc2c(NC(=O)N[C@H]3CC[C@@H](c4ccccc4)C3)c(F)ccc2cn1 [Example 27, 1-(6-fluoro-3-methylisoquinolin-5-yl)-3-[(1S,3R)-3-phenylcyclopentyl]urea] | 7 | 60 | 60 |  | % Increase in tail withdrawal latency (Sprague-Dawley rats): −; IC50 ([1]; Table 2): 6 nM
Cc1cccnc1N1CC=C(C(=O)Nc2ccc(S(=O)(=O)C(F)(F)F)cc2)CC1 [L, reference compound] |  |  | 2 | > 25 | 
CC(=O)Nc1nc2c(Oc3cc(-c4ccc(C(F)(F)F)cc4)ncn3)cccc2s1 [H, reference compound] |  |  |  | > 25 | hTRPV1 H+ (max % remain) ([2]; Table 2): 10%
CC(C)(C)c1ccc(Nc2ncnc3cc(-c4ncccc4C(F)(F)F)ccc23)cc1 [I, reference compound] |  |  | 1 | > 25 | 
Cc1nc(Nc2cccc3c2C[C@H](O)CC3)oc1-c1ccc(C(F)(F)F)cc1 [K, reference compound] |  |  | 3 | > 25 | 
O=C(Nc1cccc2[nH]ncc12)N[C@@H]1CC[C@@H](c2ccccc2F)C1 [Example 66, 1-[(1R,3R)-3-(2-fluorophenyl)cyclopentyl]-3-(1H-indazol-4-yl)urea] | 8.2 | 29 | 29 | > 25 | IC50 ([1]; Table 2): 8 nM
O=C(Nc1cccc2[nH]ncc12)N[C@@H]1CC[C@H](c2ccccc2)C1 [Example 7, 1-(1H-indazol-4-yl)-3-[(1R,3S)-3-phenylcyclopentyl]urea] | 9 | 32 | 32 |  | % Increase in tail withdrawal latency (Sprague-Dawley rats): −; IC50 ([1]; Table 2): 9 nM
Cn1c(=O)ccc2c(NC(=O)N[C@@H]3CC[C@@H](c4cccc(F)c4)C3)cccc21 [Example 78, 1-[(1R,3R)-3-(3-fluorophenyl)cyclopentyl]-3-(1-methyl-2-oxo-1,2-dihydroquinolin-5-yl)urea] | 6.5 | 78 | 78 | 10 to 25 | IC50 ([1]; Table 2): 7 nM
O=C1CCc2ccc(NC(=O)N[C@H]3CC[C@@H](c4ccccc4)C3)cc2N1 [Example 26, 1-(2-oxo-1,2,3,4-tetrahydroquinolin-7-yl)-3-[(1S,3R)-3-phenylcyclopentyl]urea] | 544 | 65 |  |  | 
O=C(Nc1cccc2c1C[C@H](O)C2)N[C@H]1CC[C@@H](c2cccc(F)c2)C1 [Example 91, 1-[(1S,3R)-3-(3-fluorophenyl)cyclopentyl]-3-[(2R)-2-hydroxy-2,3-dihydro-1H-inden-4-yl]urea] | 338 | 63 |  |  | 
C[C@H]1Oc2c(NC(=O)N[C@H]3CC[C@H](c4ccccc4)C3)cccc2NC1=O [Example 10, 1-[(2R)-2-methyl-3-oxo-3,4-dihydro-2H-1,4-benzoxazin-8-yl]-3-[(1S,3S)-3-phenylcyclopentyl]urea] | 84 | 3 |  |  | 
C[C@@]1(c2ccccc2)CC[C@H](NC(=O)Nc2cccc3[nH]ncc23)C1 [Example 72, 1-(1H-indazol-4-yl)-3-[(1S,3R)-3-methyl-3-phenylcyclopentyl]urea] | 80 | 22 |  |  | 
CC(C)(C)c1ccc(C2CCCC(NC(=O)Nc3cccc4[nH]ncc34)C2)cc1 (stereo not drawn) [Example 29, 1-[3-(4-tert-butylphenyl)cyclohexyl]-3-(1H-indazol-4-yl)urea] | 1730 | 68 |  |  | 
Cc1cc2c(NC(=O)N[C@H]3CC[C@@H](c4ccccc4F)C3)c(F)ccc2cn1 [Example 83, 1-(6-fluoro-3-methylisoquinolin-5-yl)-3-[(1S,3R)-3-(2-fluorophenyl)cyclopentyl]urea] | 5.3 | 48 |  |  | 
O=C(Nc1cccc2[nH]ncc12)N[C@H]1C[C@H](c2ccccc2)C1 [Example 57, 1-(1H-indazol-4-yl)-3-(trans-3-phenylcyclobutyl)urea] | 64 | 4 |  |  | 
CCc1cc2c(NC(=O)N[C@@H]3CC[C@H](c4ccccc4)C3)c(F)ccc2cn1 [Example 140, 1-(3-ethyl-6-fluoroisoquinolin-5-yl)-3-[(1R,3S)-3-phenylcyclopentyl]urea] | 9600 | 90 |  |  | 
CN1C(=O)CCc2c(NC(=O)N[C@H]3CC[C@@H](c4cccc(F)c4)C3)cccc21 [Example 98, 1-[(1S,3R)-3-(3-fluorophenyl)cyclopentyl]-3-(1-methyl-2-oxo-1,2,3,4-tetrahydroquinolin-5-yl)urea] | 54 | 32 |  |  | 
O=C(Nc1cccc2[nH]ncc12)N[C@@H]1CC[C@@H](c2ccc(C(F)(F)F)cc2)C1 [Example 44, 1-(1H-indazol-4-yl)-3-{(1R,3R)-3-[4-(trifluoromethyl)phenyl]cyclopentyl}urea] | 169 | 13 |  |  | 
O=C(Nc1ccc2c(c1)NC(=O)N(CCO)C2)N[C@H]1CC[C@H](c2ccccc2)C1 [Example 114, 1-[3-(2-hydroxyethyl)-2-oxo-1,2,3,4-tetrahydroquinazolin-7-yl]-3-[(1S,3S)-3-phenylcyclopentyl]urea] | 830 | 62 |  |  | 
Cc1coc([C@H]2CC[C@@H](NC(=O)Nc3cccc4[nH]ncc34)C2)n1 (single isomer, unassigned) [Example 123, 1-(1H-indazol-4-yl)-3-[(1R*,3S*)-3-(4-methyl-1,3-oxazol-2-yl)cyclopentyl]urea] | 1110 | 29 |  |  | 
O=C(Nc1cccc2c1C[C@@H](O)C2)N[C@H]1CC[C@H](c2ccccc2)C1 [Example 9, 1-[(2S)-2-hydroxy-2,3-dihydro-1H-inden-4-yl]-3-[(1S,3S)-3-phenylcyclopentyl]urea] | 205 | 14 |  |  | 
